Laboratory results: ChEMBL document CHEMBL4152224, “The Identification of Potent, Selective, and Orally Available Inhibitors of Ataxia Telangiectasia Mutated (ATM) Kinase: The Discovery of AZD0156 (8-{6-[3-(Dimethylamino)propoxy]pyridin-3-yl}-3-methyl-1-(tetrahydro-2 H-pyran-4-yl)-1,3-dihydro-2 H-imidazo[4,5- c]quinolin-2-one)” (J Med Chem, 2018)
Active and inactive are the calls of the source. The calls are words filed in the database; no cut-off is given here.

Key:
[1] = Buffer/octanol partition coefficient, log D of the compound at pH 7.4 by shake flask method; assay type: physicochemical
[2] = Thermodynamic solubility of the compound in 0.1M aqueous phosphate buffer at pH 7.4 after 24 hrs by LC-UV analysis; assay type: physicochemical; conditions: read-out: Therm_solubility
[3] = Apparent permeability across apical to basolateral side in MDCK cells overexpressing MDR1; assay type: ADME, cell-based, Canis lupus familiaris; conditions: dog
[4] = Apparent permeability across apical to basolateral side in human Caco2 cells; assay type: ADME, cell-based; conditions: Caco-2
[5] = Oral bioavailability in rat; assay type: ADME, organism-based; conditions: in vivo
[6] = Volume of distribution at steady state in rat; assay type: ADME, organism-based; conditions: in vivo, read-out: Vdss
[7] = Dissociation constant, pKa of the compound; assay type: physicochemical
[8] = Oral bioavailability in dog; assay type: ADME, organism-based, Canis lupus familiaris; conditions: in vivo
[9] = Volume of distribution at steady state in dog; assay type: ADME, organism-based, Canis lupus familiaris; conditions: in vivo, read-out: Vdss
[10] = Solubility of the compound in phosphate buffer at pH 6.5; assay type: physicochemical
[11] = Solubility of the compound in simulated gastric fluid; assay type: physicochemical
[12] = Solubility of the compound in FaSSIF; assay type: physicochemical
[13] = Fraction unbound in rat plasma
[14] = Apparent permeability across apical to basolateral side in human Caco2 cells at pH 6.5; assay type: ADME, cell-based; conditions: Caco-2, pH 6.5
Cytochrome P450 3A4 = Cytochrome P450 3A4 (Homo sapiens, UniProt P08684); assay: Inhibition of human CYP3A4; assay type: ADME
Cytochrome P450 3A4, sequence (P08684 whole entry): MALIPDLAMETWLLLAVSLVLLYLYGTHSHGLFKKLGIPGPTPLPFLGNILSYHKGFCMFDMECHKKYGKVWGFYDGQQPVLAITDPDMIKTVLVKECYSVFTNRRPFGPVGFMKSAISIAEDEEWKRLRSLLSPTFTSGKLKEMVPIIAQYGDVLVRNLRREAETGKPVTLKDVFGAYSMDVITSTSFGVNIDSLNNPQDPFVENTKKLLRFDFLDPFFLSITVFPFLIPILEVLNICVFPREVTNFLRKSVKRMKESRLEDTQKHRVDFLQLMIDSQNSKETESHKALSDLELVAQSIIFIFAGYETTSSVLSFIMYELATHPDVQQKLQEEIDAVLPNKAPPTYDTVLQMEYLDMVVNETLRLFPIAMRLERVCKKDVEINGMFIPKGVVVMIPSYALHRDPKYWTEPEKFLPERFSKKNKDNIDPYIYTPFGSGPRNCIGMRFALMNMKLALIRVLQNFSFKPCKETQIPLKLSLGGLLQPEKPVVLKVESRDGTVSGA

Cytochrome P450 2D6 = Cytochrome P450 2D6 (Homo sapiens, UniProt P10635); assay: Inhibition of human CYP2D6; assay type: ADME
Cytochrome P450 2D6, sequence (P10635 whole entry): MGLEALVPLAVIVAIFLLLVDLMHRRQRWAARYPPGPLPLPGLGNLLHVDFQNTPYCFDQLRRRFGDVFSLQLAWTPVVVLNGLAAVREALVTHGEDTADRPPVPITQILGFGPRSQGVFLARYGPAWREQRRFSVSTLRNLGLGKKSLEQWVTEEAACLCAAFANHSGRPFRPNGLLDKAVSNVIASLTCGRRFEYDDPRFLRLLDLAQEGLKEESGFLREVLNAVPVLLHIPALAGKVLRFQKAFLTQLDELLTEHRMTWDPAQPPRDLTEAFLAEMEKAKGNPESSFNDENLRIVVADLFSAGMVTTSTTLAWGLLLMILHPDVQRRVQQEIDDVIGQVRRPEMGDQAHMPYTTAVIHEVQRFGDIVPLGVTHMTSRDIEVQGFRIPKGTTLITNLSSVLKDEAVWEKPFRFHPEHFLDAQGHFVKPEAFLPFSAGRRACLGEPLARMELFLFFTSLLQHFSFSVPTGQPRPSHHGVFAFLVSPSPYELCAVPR

Cytochrome P450 2C9 = Cytochrome P450 2C9 (Homo sapiens, UniProt P11712); assay: Inhibition of human CYP2C9; assay type: ADME
Cytochrome P450 2C9, sequence (P11712 whole entry): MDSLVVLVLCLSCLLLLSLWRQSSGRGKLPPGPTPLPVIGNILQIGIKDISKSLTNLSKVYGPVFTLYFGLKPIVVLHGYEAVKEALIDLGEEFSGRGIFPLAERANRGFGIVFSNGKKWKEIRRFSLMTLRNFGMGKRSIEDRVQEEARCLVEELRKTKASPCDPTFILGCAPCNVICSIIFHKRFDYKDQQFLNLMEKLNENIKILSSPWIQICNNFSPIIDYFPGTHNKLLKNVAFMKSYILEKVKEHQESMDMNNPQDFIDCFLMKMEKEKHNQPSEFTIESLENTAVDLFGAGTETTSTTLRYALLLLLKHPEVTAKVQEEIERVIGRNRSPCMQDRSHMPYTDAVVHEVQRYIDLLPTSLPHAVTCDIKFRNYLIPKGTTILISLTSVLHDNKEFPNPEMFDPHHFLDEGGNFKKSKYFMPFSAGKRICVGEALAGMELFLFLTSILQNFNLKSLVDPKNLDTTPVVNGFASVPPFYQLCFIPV

Cytochrome P450 1A2 = biological target: T1, Cytochrome P450 1A2 (Homo sapiens, UniProt P05177); assay: Inhibition of human CYP1A2; assay type: ADME
T1 sequence (P05177 whole entry): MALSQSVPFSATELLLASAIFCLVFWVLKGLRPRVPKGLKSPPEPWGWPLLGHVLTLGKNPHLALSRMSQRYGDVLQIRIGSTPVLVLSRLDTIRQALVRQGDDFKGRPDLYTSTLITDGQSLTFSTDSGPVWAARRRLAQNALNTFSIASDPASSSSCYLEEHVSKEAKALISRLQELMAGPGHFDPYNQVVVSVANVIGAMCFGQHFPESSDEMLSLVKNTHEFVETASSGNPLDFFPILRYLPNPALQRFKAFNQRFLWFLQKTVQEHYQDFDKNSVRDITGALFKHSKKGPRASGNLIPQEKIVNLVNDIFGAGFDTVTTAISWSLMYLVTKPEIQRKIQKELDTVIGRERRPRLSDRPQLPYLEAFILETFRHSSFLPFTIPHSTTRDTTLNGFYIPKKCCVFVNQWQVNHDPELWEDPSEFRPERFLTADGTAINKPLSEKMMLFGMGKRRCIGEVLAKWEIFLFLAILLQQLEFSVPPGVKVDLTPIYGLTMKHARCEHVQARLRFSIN

Cytochrome P450 2C19 = Cytochrome P450 2C19 (Homo sapiens, UniProt P33261); assay: Inhibition of human CYP2C19; assay type: ADME
Cytochrome P450 2C19, sequence (P33261 whole entry, the tested form may be a part, canonical isoform): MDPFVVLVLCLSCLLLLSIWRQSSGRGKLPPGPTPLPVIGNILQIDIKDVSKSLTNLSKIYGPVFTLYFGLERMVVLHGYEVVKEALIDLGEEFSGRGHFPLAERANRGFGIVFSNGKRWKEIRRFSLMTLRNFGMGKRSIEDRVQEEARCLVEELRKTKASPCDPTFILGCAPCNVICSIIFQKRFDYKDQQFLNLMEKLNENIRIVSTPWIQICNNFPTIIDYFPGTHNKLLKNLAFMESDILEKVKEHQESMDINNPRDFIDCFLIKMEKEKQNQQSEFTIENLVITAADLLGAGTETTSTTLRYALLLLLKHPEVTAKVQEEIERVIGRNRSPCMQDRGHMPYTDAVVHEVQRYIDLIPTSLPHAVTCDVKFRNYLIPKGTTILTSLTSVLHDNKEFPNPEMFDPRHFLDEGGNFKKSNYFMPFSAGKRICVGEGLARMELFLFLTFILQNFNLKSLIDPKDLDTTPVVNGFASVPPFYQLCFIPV

[15] = biological target: Phosphatidylinositol 4,5-bisphosphate 3-kinase catalytic subunit beta isoform (Homo sapiens, UniProt P42338); assay: Inhibition of human PI3Kbeta (P118 to S1070 residues) expressed in mammalian expression system
Phosphatidylinositol 4,5-bisphosphate 3-kinase catalytic subunit beta isoform, sequence (P42338 whole entry, the tested form may be a part, canonical isoform): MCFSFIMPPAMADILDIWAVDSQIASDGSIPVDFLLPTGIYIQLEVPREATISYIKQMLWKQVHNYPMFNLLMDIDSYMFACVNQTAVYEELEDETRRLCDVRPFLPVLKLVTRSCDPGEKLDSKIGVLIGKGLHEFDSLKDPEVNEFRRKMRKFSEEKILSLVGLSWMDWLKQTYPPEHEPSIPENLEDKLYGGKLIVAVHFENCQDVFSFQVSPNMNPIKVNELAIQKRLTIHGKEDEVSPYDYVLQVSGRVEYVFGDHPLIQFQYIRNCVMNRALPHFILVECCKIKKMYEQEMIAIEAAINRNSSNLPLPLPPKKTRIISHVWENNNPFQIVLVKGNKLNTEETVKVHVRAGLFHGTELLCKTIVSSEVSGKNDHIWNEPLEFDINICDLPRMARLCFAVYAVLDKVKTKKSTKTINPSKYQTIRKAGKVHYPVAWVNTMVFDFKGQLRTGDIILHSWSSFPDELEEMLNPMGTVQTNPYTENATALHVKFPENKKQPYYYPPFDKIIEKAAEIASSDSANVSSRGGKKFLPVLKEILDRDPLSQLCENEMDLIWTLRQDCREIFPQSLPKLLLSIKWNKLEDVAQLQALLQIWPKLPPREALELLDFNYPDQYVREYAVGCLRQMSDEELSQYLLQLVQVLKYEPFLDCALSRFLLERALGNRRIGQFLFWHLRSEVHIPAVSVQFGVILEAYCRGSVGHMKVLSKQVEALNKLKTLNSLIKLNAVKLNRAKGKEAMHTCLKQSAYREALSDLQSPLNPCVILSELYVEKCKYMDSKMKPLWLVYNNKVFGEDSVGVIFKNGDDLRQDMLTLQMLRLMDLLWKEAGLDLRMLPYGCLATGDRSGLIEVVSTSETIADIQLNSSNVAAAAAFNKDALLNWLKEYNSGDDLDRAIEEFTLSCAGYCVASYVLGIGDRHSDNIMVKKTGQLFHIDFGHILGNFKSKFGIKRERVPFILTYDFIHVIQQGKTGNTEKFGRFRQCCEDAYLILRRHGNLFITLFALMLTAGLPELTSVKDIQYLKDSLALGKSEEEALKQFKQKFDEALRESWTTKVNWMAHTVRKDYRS

[16] = biological target: Phosphatidylinositol 4,5-bisphosphate 3-kinase catalytic subunit gamma isoform (Homo sapiens, UniProt P48736); assay: Inhibition of human PI3Kgamma (S144 to A1102 residues) expressed in mammalian expression system
Phosphatidylinositol 4,5-bisphosphate 3-kinase catalytic subunit gamma isoform, sequence (P48736 whole entry, the tested form may be a part, canonical isoform): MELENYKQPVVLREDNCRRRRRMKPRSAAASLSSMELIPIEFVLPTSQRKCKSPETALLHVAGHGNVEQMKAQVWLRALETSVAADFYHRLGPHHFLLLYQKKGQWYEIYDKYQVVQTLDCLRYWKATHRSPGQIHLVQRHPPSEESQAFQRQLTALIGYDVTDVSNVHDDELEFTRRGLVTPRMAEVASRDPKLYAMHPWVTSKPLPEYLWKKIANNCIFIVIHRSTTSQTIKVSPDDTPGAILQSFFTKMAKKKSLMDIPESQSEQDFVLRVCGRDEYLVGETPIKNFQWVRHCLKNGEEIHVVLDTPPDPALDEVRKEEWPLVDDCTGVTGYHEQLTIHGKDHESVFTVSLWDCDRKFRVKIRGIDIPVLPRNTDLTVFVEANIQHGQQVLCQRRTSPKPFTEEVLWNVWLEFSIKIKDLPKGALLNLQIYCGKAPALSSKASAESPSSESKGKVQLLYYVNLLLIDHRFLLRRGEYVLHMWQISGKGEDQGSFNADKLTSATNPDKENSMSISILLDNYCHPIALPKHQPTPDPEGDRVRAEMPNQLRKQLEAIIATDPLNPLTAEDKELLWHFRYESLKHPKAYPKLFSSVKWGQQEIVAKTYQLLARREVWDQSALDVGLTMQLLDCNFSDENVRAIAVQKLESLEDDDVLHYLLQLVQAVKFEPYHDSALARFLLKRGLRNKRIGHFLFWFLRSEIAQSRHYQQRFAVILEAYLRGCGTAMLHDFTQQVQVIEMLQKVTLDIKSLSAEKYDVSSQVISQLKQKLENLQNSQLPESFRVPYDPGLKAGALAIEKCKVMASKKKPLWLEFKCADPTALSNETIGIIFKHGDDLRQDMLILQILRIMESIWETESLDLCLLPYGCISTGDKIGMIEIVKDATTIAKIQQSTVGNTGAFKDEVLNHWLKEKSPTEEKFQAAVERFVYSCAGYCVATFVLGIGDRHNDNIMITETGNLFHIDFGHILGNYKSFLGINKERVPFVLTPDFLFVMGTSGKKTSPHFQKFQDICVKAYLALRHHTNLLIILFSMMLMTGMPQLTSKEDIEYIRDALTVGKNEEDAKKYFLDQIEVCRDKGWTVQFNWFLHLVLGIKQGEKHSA

[17] = biological target: T2, Phosphatidylinositol 4,5-bisphosphate 3-kinase catalytic subunit delta isoform (Homo sapiens, UniProt O00329); assay: Inhibition of human PI3Kdelta (R108 to Q1044 residues) expressed in mammalian expression system
T2 sequence (O00329 whole entry): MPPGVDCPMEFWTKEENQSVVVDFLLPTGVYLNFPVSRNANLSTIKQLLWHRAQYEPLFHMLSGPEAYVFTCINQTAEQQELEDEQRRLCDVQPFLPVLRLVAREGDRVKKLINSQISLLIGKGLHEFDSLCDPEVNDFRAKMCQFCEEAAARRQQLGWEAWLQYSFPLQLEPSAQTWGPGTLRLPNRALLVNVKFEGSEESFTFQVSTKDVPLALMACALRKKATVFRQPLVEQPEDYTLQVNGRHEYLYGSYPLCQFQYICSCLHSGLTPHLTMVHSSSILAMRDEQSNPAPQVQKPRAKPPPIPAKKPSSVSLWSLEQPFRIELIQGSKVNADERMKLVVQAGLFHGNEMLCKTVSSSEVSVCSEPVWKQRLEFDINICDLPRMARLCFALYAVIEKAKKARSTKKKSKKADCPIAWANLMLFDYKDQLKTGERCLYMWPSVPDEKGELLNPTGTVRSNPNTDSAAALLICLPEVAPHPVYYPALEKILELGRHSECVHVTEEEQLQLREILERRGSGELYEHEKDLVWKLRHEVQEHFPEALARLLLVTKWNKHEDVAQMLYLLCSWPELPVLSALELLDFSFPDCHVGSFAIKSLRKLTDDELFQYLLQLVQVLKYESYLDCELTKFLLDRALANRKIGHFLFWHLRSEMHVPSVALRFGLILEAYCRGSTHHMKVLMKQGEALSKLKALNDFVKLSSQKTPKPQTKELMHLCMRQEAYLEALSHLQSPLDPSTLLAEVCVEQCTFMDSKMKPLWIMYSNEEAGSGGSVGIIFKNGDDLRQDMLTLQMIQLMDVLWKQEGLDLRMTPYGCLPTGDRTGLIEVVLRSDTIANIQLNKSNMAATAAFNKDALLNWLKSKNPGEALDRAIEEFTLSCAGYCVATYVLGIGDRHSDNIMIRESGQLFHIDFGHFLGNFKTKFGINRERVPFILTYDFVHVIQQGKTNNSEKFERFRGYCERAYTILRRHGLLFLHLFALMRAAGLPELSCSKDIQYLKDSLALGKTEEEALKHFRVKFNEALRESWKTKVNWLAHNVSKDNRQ

[18] = biological target: Serine/threonine-protein kinase mTOR (Homo sapiens) (UniProt P42345); assay: Inhibition of human m-TOR (L1382 to W2549 residues) expressed in mammalian expression system at 1 uM relative to control
[19] = Cmax in patient with solid tumor at 30 mg, po bid by LC-MS/MS analysis; assay type: ADME, organism-based; set-up: dose 30 mg, route oral; conditions: human, in vivo
[20] = Cmax in patient with solid tumor at 60 mg, po bid by LC-MS/MS analysis; assay type: ADME, organism-based; set-up: dose 60 mg, route oral; conditions: human, in vivo
[21] = Cmax in patient with solid tumor at 15 mg, po bid by LC-MS/MS analysis; assay type: ADME, organism-based; set-up: dose 15 mg, route oral; conditions: human, in vivo
[22] = Cmax in patient with solid tumor at 120 mg, po bid by LC-MS/MS analysis; assay type: ADME, organism-based; set-up: dose 120 mg, route oral; conditions: human, in vivo
[23] = Tmax in patient with solid tumor at 15 mg, po bid by LC-MS/MS analysis; assay type: ADME, organism-based; conditions: human, in vivo
[24] = Tmax in patient with solid tumor at 30 mg, po bid by LC-MS/MS analysis; assay type: ADME, organism-based; conditions: human, in vivo
[25] = Tmax in patient with solid tumor at 60 mg, po bid by LC-MS/MS analysis; assay type: ADME, organism-based; conditions: human, in vivo
[26] = Tmax in patient with solid tumor at 120 mg, po bid by LC-MS/MS analysis; assay type: ADME, organism-based; conditions: human, in vivo
[27] = AUC (0 to 12 hrs) in patient with solid tumor at 15 mg, po bid by LC-MS/MS analysis; assay type: ADME, organism-based; set-up: time < 12 hr, dose 15 mg, route oral; conditions: human, in vivo
[28] = AUC (0 to 12 hrs) in patient with solid tumor at 30 mg, po bid by LC-MS/MS analysis; assay type: ADME, organism-based; set-up: time < 12 hr, dose 30 mg, route oral; conditions: human, in vivo
[29] = AUC (0 to 12 hrs) in patient with solid tumor at 60 mg, po bid by LC-MS/MS analysis; assay type: ADME, organism-based; set-up: dose 60 mg, time < 12 hr, route oral; conditions: human, in vivo
[30] = AUC (0 to 12 hrs) in patient with solid tumor at 120 mg, po bid by LC-MS/MS analysis; assay type: ADME, organism-based; set-up: dose 120 mg, time < 12 hr, route oral; conditions: human, in vivo
Mus musculus [31] = assay: Toxicity in immunocompromised mouse xenografted with human SW620 cells at 20 mg/kg, po qd administered on days 2 to 4 of weekly cycle in presence of irinotecan; assay type: organism-based; conditions: in vivo
SW-620 [32] = assay: Potentiation of irinotecan-induced tumor regression against human SW620 cells xenografted in immunocompromised mouse at 20 mg/kg, po qd administered on days 2 to 4 of weekly cycle; assay type: functional, organism-based
Mus musculus [33] = assay: Toxicity in immunocompromised mouse xenografted with human HBCx-10 cells at 5 mg/kg, po qd administered on days 1 to 3 of weekly cycle in presence of olaparib; assay type: organism-based; conditions: in vivo
Homo sapiens [34] = assay: Potentiation of […]-induced tumor regression against human HBCx-10 cells xenografted in immunocompromised mouse at 5 mg/kg, po qd administered on days 1 to 3 of weekly cycle; assay type: functional, organism-based
SW-620 [35] = assay: Antitumor activity against human SW620 cells xenografted in immunocompromised mouse assessed as tumor regression at 20 mg/kg, po qd administered on days 2 to 4 of weekly cycle; assay type: functional, organism-based
[36] = biological target: Serine-protein kinase ATM (Homo sapiens, UniProt Q13315); assay: Inhibition of ATM derived from human HeLa cell nuclear extract using glutathione S-transferase p53N66 as substrate preincubated for 10 mins followed by ATP addition and subsequent incubation for 1 hr measured after 1.5 hrs by ELISA
Homo sapiens [37] = species on record: Homo sapiens; assay: Selectivity ratio of IC50 for ATR derived from human HeLa cell cytoplasmic extract to IC50 for ATM derived from human HeLa cell nuclear extract
Homo sapiens [38] = species on record: Homo sapiens; assay: Selectivity ratio of IC50 for DNA-PK derived from human HeLa cells to IC50 for ATM derived from human HeLa cell nuclear extract
Homo sapiens [39] = species on record: Homo sapiens; assay: Selectivity ratio of IC50 for mTOR derived from human HeLa cells to IC50 for ATM derived from human HeLa cell nuclear extract
Homo sapiens [40] = species on record: Homo sapiens; assay: Selectivity ratio of IC50 for PI3K derived from human HeLa cells to IC50 for ATM derived from human HeLa cell nuclear extract

## CN(C)CCCOc1ccc(-c2ccc3ncc4c(c3c2)n(C2CCOCC2)c(=O)n4C)cn1
[1]
  logD: 1.5
[2]
  solubility thermodynamic at 24 h: > 800 µM
[3]
  Papp A→B: 6.6 ×10⁻⁶ cm/s
[4]
  Papp A→B: 5.6 ×10⁻⁶ cm/s
[5]
  bioavailability: 57%
[6]
  Vd: 4.3 L/kg
[7]
  pKa: 9.6
[8]
  bioavailability: 54%
[9]
  Vd: 17.6 L/kg
[10]
  solubility: > 5000 µg/mL
[11]
  solubility: > 5000 µg/mL
[12]
  solubility: > 5000 µg/mL
[13]
  fraction unbound: 0.11
[14]
  Papp A→B: 19 ×10⁻⁶ cm/s
Cytochrome P450 3A4
  IC50: > 30 µM
Cytochrome P450 2D6
  IC50: > 30 µM
Cytochrome P450 2C9
  IC50: > 30 µM
Cytochrome P450 1A2
  IC50: > 30 µM
Cytochrome P450 2C19
  IC50: > 30 µM
[15]
  IC50: 1800 nM
[16]
  IC50: 1100 nM
[17]
  IC50: 270 nM
[18]
  inhibition: 93%
[19]
  Cmax: 17.5 ng/mL
[20]
  Cmax: 39.6 ng/mL
[21]
  Cmax: 6.67 ng/mL
[22]
  Cmax: 58.8 ng/mL
[23]
  Tmax: 2 h
[24]
  Tmax: 2 h
[25]
  Tmax: 2.5 h
[26]
  Tmax: 2.5 h
[27]
  AUC at 12 h: 40.4 ng·h/mL
[28]
  AUC at 12 h: 105 ng·h/mL
[29]
  AUC at 12 h: 206 ng·h/mL
[30]
  AUC at 12 h: 330 ng·h/mL
Mus musculus [31]
  Activity: Non-Toxic
SW-620 [32]
  Activity: Active
Mus musculus [33]
  Activity: Non-Toxic
Homo sapiens [34]
  Activity: Active
SW-620 [35]
  Activity: inactive

## CN1CCN(CCC(=O)Nc2ccc3c(c2)Sc2cccc(-c4cc(=O)cc(N5CCOCC5)o4)c2S3)CC1
[36]
  IC50: 3 nM
Homo sapiens [37]
  Ratio IC50: > 300
Homo sapiens [38]
  Ratio IC50: > 300
Homo sapiens [39]
  Ratio IC50: > 300
Homo sapiens [40]
  Ratio IC50: > 300
